The format of series [1] is in vivo, human. The following applies: for AUC(0-inf): human, plasma, AUCinf, GM (CV%), total AUCinf; for distribution of exposure (AUCinf, Cmax) across Child-Pugh classifications: subjects with normal NCIc, box plots Figures 2A, 3.
For series [2] the following is noted: cited from earlier work.
Setting [3] is: Child-Pugh mild and moderate HI.
Setting [4] is: any degree of HI based on Child-Pugh.

Like-named read-outs stand apart in the source and are kept apart here.

Usually AUC(0-inf) stands for total exposure, with the tail of the curve extrapolated.

For the compound `CCN(CC)CCNC(=O)c1c(C)[nH]c(/C=C2\C(=O)Nc3ccc(F)cc32)c1C` [Sunitinib, sunitinib], the total exposure AUC(0-inf) in series [1] (Child-Pugh mild HI group) worked out at 1510 ng·h/mL; in series [1] (Child-Pugh moderate HI group), 1480 ng·h/mL; in series [1] (NCIc mild group), 1690 ng·h/mL; in series [1] (NCIc moderate group), 1530 ng·h/mL; in series [1] (NCIc normal group), 1340 ng·h/mL. The “effect of HI on sunitinib exposure (AUCinf and Cmax) versus normal” value in series [2] (setting [3]) is on record as “did not alter”.
As for `CC(=O)c1c(C)c2cnc(Nc3ccc(N4CCNCC4)cn3)nc2n(C2CCCC2)c1=O` [Palbociclib, palbociclib], the “unbound AUCinf of mild group compared with normal hepatic function” value in series [1] (via either classification (Child-Pugh or NCIc)) was “overall similar”. Moreover, the “mean fraction unbound in plasma” value in series [2] (across Child-Pugh hepatic function groups) is “increased with worsening hepatic function”.
As to `CNC(=O)c1ccccc1Sc1ccc2c(/C=C/c3ccccn3)n[nH]c2c1` [Axitinib, axitinib], the AUC(0-inf) in series [1] (Child-Pugh mild HI group) amounted to 122 ng·h/mL; in series [1] (Child-Pugh moderate HI group), 304 ng·h/mL; in series [1] (NCIc mild group), 210 ng·h/mL; in series [1] (NCIc moderate group) it was 410 ng·h/mL; in series [1] (NCIc normal group), 137 ng·h/mL. Besides, the “distribution of exposure (AUCinf, Cmax) across Child-Pugh classifications” value in series [1] is listed as “appeared similar”. For the same compound, in series [2] (Child-Pugh mild HI), the “effect of HI on axitinib exposure (Cmax and AUCinf) versus normal” value was “did not affect”. Also, in series [2] (Child-Pugh moderate HI), the “higher AUCinf (exposure) compared with normal” value was 2 fold.
With `COc1cc2ncnc(Nc3ccc(F)c(Cl)c3)c2cc1NC(=O)/C=C/CN1CCCCC1` [Dacomitinib, dacomitinib], the “exposure (AUCinf and Cmax) of mild and moderate groups compared with normal hepatic function” value in series [1] (based on either classification system (Child-Pugh or NCIc)) is on record as “similar”. Also, the AUC(0-inf) in series [1] (Child-Pugh mild HI group) worked out at 811 ng·h/mL; in series [1] (Child-Pugh moderate HI group), 682 ng·h/mL; in series [1] (NCIc mild group), 753 ng·h/mL; in series [1] (NCIc moderate group), 583 ng·h/mL; in series [1] (NCIc normal group), 800 ng·h/mL; in series [1] (NCIc severe group), 685 ng·h/mL. The “effect of HI on dacomitinib exposure versus normal” value in series [2] (setting [3]) is “did not alter”.
`COc1cc(Nc2c(C#N)cnc3cc(OCCCN4CCN(C)CC4)c(OC)cc23)c(Cl)cc1Cl` [Bosutinib, bosutinib]: in series [1] (NCIc mild HI), the “higher AUCinf compared with normal NCIc hepatic function” value amounted to 40%. Also, the total exposure AUC(0-inf) in series [1] (Child-Pugh mild HI group) was 1940 ng·h/mL; in series [1] (Child-Pugh moderate HI group), 1730 ng·h/mL; in series [1] (Child-Pugh severe HI group), 1660 ng·h/mL; in series [1] (NCIc mild group), 1580 ng·h/mL; in series [1] (NCIc moderate group) it was 1860 ng·h/mL; in series [1] (NCIc normal group) it was 1130 ng·h/mL. This compound also yielded a total exposure AUC(0-inf) in series [1] (NCIc severe group) of 1350 ng·h/mL. Also, in series [1], the “distribution of exposure (AUCinf, Cmax) across Child-Pugh classifications” value is reported as “higher exposure”. Further, the “AUCinf in Child-Pugh mild HI compared with Child-Pugh normal” value in series [1] (within subjects with normal NCI hepatic function) is recorded as ~2 fold. For the same compound, in series [2] (setting [4]), the “higher exposure compared with normal hepatic function” value was ~2 fold. For the same compound, the “plasma elimination half-life compared with normal hepatic function” value in series [2] (setting [4]) was “longer”.

The values above are taken from publication PMC7754409 (Journal of Clinical Pharmacology, 2020).
